In US6525026B2, “Carbamyloxy compounds which inhibit leukocyte adhesion mediated by VLA-4” (Elan Pharmaceuticals, Inc., priority 1997, dated 2003):
Numbered stars: 1 amine (or outer) side, 2 acyl side, 3 side chain; on linkers, the order of the positions; unused ones are H or OH. Side chains are listed from the residue outwards. Peptide text beside a SMILES is read from it. * marks the point of attachment. Tos = Cc1ccc(S(=O)(=O)*)cc1; CO = O=C([*:1])[*:2]; OiPr = CC(C)O*

system: not given; assay: not given; conditions: not given

Row | melting point [°C] | SMILES
1 | 158 to 160 | Cc1ccc(S(=O)(=O)N2CCC[C@H]2C(=O)N[C@@H](Cc2ccc(OC(=O)N3CCN(CCO)CC3)cc2)C(=O)OC(C)(C)C)cc1

system: rats or guinea pigs; assay: Experimental Autoimmune (or Allergic) Encephalomyelitis (EAE) model, motor impairment; type: in vivo; conditions: treatment from Day 8, 10 mg/kg to 200 mg/kg bid for five days, SC, PO or IP

Row | SMILES | active in EAE in vivo assay (delayed the onset of symptoms, e.g., clinical scores no greater than 2 or slowed body weight loss as compared to the control)
2 | Cc1ccc(S(=O)(=O)N2CCS(=O)(=O)C[C@@H]2C(=O)N[C@@H](Cc2ccc(OC(=O)N(C)C)cc2)C(=O)OC(C)C)cc1 [Example 73, N-(Toluene-4-sulfonyl)-L-(1,1-dioxothiamorpholin-3-carbonyl)-L-4-(N,N-dimethylcarbamyloxy)phenylalanine Isopropyl Ester] | active
3 | Cc1ccc(S(=O)(=O)N2CCC[C@H]2C(=O)N[C@@H](Cc2ccc(OC(=O)N(C)C)cc2)C(=O)O)cc1 [Example 9, N-(Toluene-4-sulfonyl)-L-prolyl-L-4-(N,N-dimethylcarbamyloxy)phenylalanine] (Tos-Pro-Tyr([CO-NMe2])-OH) | active
4 | Cc1ccc(S(=O)(=O)N2CCS(=O)(=O)C[C@@H]2C(=O)N[C@@H](Cc2ccc(OC(=O)N(C)C)cc2)C(=O)OC(C)(C)C)cc1 [Example 51, N-(Toluene-4-sulfonyl)-L-(1,1-dioxothiamorpholin-3-carbonyl)-L-4-(N,N-dimethylcarbamyloxy)phenylalanine tert-Butyl Ester] | active
5 | CC(C)OC(=O)[C@H](Cc1ccc(OC(=O)N(C)C)cc1)NC(=O)[C@@H]1CCCN1S(=O)(=O)c1cnn(C)c1 [Example 137, N-(Methyl-pyrazole-4-sulfonyl)-L-prolyl-L-(4-N,N-dimethylcarbamyloxy)-phenylalanine Isopropyl Ester] | active
6 | Cc1ccc(S(=O)(=O)N2CS(=O)(=O)C(C)(C)[C@H]2C(=O)N[C@@H](Cc2ccc(OC(=O)N(C)C)cc2)C(=O)OC(C)C)cc1 [Example 75, N-(Toluene-4-sulfonyl)-L-(1,1-dioxo-5,5-dimethyl)thiaprolyl-L-4-(N,N-dimethylcarbamyloxy)phenylalanine Isopropyl Ester] | active
7 | Cc1ccc(S(=O)(=O)N2CCC[C@H]2C(=O)N[C@@H](Cc2ccc(OC(=O)N3CCSCC3)cc2)C(=O)OC(C)(C)C)cc1 [Example 82, N-(Toluene-4-sulfonyl)-L-prolyl-L-4-(thiomorpholin-4-ylcarbonyloxy)phenylalanine tert-Butyl Ester] | active
8 | Cc1ccc(S(=O)(=O)N2CSC(C)(C)[C@H]2C(=O)N[C@@H](Cc2ccc(OC(=O)N(C)C)cc2)C(=O)OC(C)C)cc1 [Example 11, N-(Toluene-4-sulfonyl)-L-(5,5-dimethyl)thiaprolyl-L-4-(N,N-dimethylcarbamyloxy)phenylalanine Isopropyl Ester] | active
9 | Cc1ccc(S(=O)(=O)N2CCC[C@H]2C(=O)N[C@@H](Cc2ccc(OC(=O)N3CCN(C)CC3)cc2)C(=O)OC(C)(C)C)cc1 [Example 4, N-(Toluene-4-sulfonyl)-L-prolyl-L-4-(4-methylpiperazin-1-ylcarbonyloxy)phenylalanine tert-Butyl Ester] | active
10 | CN(C)C(=O)Oc1ccc(C[C@H](NC(=O)[C@@H]2CCCN2S(=O)(=O)c2cnn(C)c2)C(=O)OC(C)(C)C)cc1 [Example 117, N-(Methyl-pyrazole-4-sulfonyl)-L-prolyl-L-(4-N,N-dimethylcarbamyloxy)phenylalanine tert-Butyl Ester] | active
11 | CN(C)C(=O)Oc1ccc(C[C@H](NC(=O)[C@H]2N(S(=O)(=O)c3ccc(F)cc3)CSC2(C)C)C(=O)OC(C)(C)C)cc1 [Example 95, N-(4-Fluorobenzenesulfonyl)-L-(5,5-dimethyl)thiaprolyl-L-4-(N,N-dimethylcarbamyloxy)phenylalanine tert-Butyl Ester] | active
12 | Cc1ccc(S(=O)(=O)N2CCC[C@H]2C(=O)N[C@@H](Cc2ccc(OC(=O)N(C)C)cc2)C(=O)OC(C)C)cc1 [Example 101, N-(Toluene-4-sulfonyl)-L-prolyl-L-4-(N,N-dimethylcarbamyloxy)-L-phenylalanine Isopropyl Ester] (Tos-Pro-Tyr([CO-NMe2])-OiPr) | active
13 | Cc1ccc(S(=O)(=O)N2CSC(C)(C)[C@H]2C(=O)N[C@@H](Cc2ccc(OC(=O)N3CCN(C)CC3)cc2)C(=O)OC(C)(C)C)cc1 [Example 16, N-(Toluene-4-sulfonyl)-L-(5,5-dimethyl)thiaprolyl-L-4-(4-methylpiperazin-1-ylcarbonyloxy)phenylalanine tert-Butyl Ester] | active
14 | Cc1ccc(S(=O)(=O)N2CSC(C)(C)[C@H]2C(=O)N[C@@H](Cc2ccc(OC(=O)N(C)C)cc2)C(=O)OC(C)(C)C)cc1 [Example 12, N-(Toluene-4-sulfonyl)-L-(5,5-dimethyl)thiaprolyl-L-4-(N,N-dimethylcarbamyloxy)phenylalanine tert-Butyl Ester] | active
